According to US6469052B2, “Compounds for the photodecontamination of pathogens in blood” (Cerus Corporation, priority 1993, dated 2002):

Key:
Pseudomonus = test: Bacterial inactivation (colony forming units); format: cell-based; details: 16 μM, after 5 J/cm^2 irradiation, starting titer 6.5 logs, 15% FBS in DMEM
Method: In this example bacterial inactivation by the photoreactive nucleic acid binding compounds of the present invention was measured as a function of the ability of the bacteria to subsequently replicate. A gram negative bacteria was chosen as representative of the more difficult bacterial strains to inactivate.
The bacteria, a strain of Pseudomonus, was innoculated into LB with a sterile loop and grown overnight in a shaker at 37° C. Based on the approximation that one OD at 610 nm is equivalent to 5×10^8 colony forming units (cfu)/mL, a 1:10 dilution of the culture was measured on a spectrophotometer, (manufactured by Shimatsu). The bacterial culture was added to a solution of 15% fetal bovine serum in DMEM to a final bacteria concentration of approximately 10^6/mL. An aliquot (0.8 mL) was transferred to a 1.5 mL snap-top polyethylene tube. An aliquot (0.004-0.040 mL) of the test compound stock solution prepared in water, ethanol or dimethylsulfoxide at 0.80-8.0 mM was added to the tube. Compounds were tested at a concentration of 16 μM. The tubes were placed in a light device as described in EXAMPLE 1 and irradiated with 1.3 J/cm^2, 1.2 J/cm^2, and finally 2.5 J/cm^2, for a total of 5 J/cm^2. […] The colony forming units were then counted the following morning and the titer of the […] remaining after phototreatment was calculated based on the dilution factors. […]

mouse reticulocytes = details: increased dose levels, male Balb/c mice, tail vein
Method: Male Balb/c mice were then injected with 0.1 ml of a compound solution via the tail vein. At least 3 mice were injected per dose level. Saline only was used as a negative control. For a positive control, cyclophosphamide (cycloPP) was administered at a dose of 30 mg/kg. In the experimental group, the injections were repeated once per day for four days. In the positive control group, the sample was administered only once, on day three. On day 5, several microliters of blood were withdrawn from each subject and smeared on a glass slide. Cells were fixed in absolute methanol and stored in a slide rack.
For analysis, cells were stained with acridine orange and visualized under a fluorescence microscope by counting: (i) the number of reticulocytes per 5000 erythrocytes; and (ii) the number of micronucleated reticulocytes per 1000 reticulocytes. Reticulocytes were distinguished by their red fluorescence due to the presence of RNA. Micronuclei were distinguished by their green fluorescence due to the presence of DNA. The percentage of reticulocytes (%PCE) was then calculated. A decrease in the frequency of […] in the percentage of reticulocytes, is an indication of bone marrow toxicity. The percentage of reticulocytes with micronuclei (%PCE with MN) was also calculated. An increase in %PCE with MN is a measure of clastogenicity.
After initial results were determined, the experiment was repeated using increased dose levels, until: (i) Micronucleus formation was seen; or (ii) Bone marrow toxicity was observed; or (ii) The lethal dose was reached; or (iv) A dose of 5 g/kg was administered.

Row | SMILES | log kill of bacteria (Pseudomonus) | outcome of dose escalation in the micronucleus assay (mouse reticulocytes)
1 | Cc1oc2c(C)c3oc(=O)cc(C)c3cc2c1COCCN [Compound 2, 4′-(4-amino-2-oxa)butyl-4,5′,8-trimethylpsoralen] | > 5.5 logs | the acutely lethal dose was reached before there were any signs of bone marrow toxicity or micronucleus formation
2 | Cc1oc2c(C)c3oc(=O)cc(C)c3cc2c1CNCCCCN [Compound 6, 4′-(6-amino-2-aza)hexyl-4,5′,8-trimethylpsoralen] | > 5.5 logs | the acutely lethal dose was reached before there were any signs of bone marrow toxicity or micronucleus formation
